Measurements published in patent US20260176320A1, “MODULATORS OF G-PROTEIN COUPLED RECEPTORS” (priority 2018, published 2026).
Read-outs that look alike come from different tables or passages of the source.

Columns and labels:
Format in all cases: cell-based
GLP-1R [1] = biological target: T1, GLP-1R (Homo sapiens, UniProt P43220); test: PathHunter β-arrestin assay
Outline: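 Agonist concentration–response (22 points, 2-fold steps, duplicates) was run on cells plated the previous day in BSA-supplemented (0.2%) medium. Stimulation lasted 90 min at 37 °C, followed by a 3 h dark incubation with detection reagent at room temperature and a luminescence read.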

GIP-R = biological target: T2, GIP-R (Homo sapiens, UniProt P48546); test: HitHunter cAMP assay (GIP-R); conditions: cAMP; for Emax: read-out: (Emax) GIP-R
T2 sequence (P48546 22-466): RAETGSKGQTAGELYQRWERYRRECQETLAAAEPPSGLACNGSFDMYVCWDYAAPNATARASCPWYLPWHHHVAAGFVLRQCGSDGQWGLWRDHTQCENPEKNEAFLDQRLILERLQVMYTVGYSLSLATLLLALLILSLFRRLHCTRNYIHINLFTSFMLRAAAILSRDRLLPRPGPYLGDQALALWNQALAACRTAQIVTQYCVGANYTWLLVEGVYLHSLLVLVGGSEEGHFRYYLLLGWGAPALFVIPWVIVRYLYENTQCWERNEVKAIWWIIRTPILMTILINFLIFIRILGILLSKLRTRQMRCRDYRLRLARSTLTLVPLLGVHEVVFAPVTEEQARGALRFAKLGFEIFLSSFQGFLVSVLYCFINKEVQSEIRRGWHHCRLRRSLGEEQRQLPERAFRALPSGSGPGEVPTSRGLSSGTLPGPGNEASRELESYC
Outline: (§1)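 Cells were resuspended in HBSS plus HEPES, IBMX (625 μM) and BSA, then dispensed with antibody at 10,000 per well. Agonists followed as 22-point twofold series, 30 min at room temperature. Antibody reagent and detection steps ran 1 h and overnight in the dark before luminescence.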

GLP-1R [2] = biological target: T1, GLP-1R; test: HitHunter cAMP assay (GLP-1R); conditions: cAMP; for Emax: read-out: (Emax) GLP-1R
Outline: as §1

[3] = PathHunter β-arrestin assay, read-out: β-arrestin activity EC50
[4] = Table 3, read-out: EC50 GIP-R/nM
[5] = Table 3A, read-out: EC50 GIP-R/nM
[6] = Table 3, read-out: EC50 GLP-1R/nM
[7] = Table 3A, read-out: EC50 GLP-1R/nM

T1 sequence (P43220 24-463): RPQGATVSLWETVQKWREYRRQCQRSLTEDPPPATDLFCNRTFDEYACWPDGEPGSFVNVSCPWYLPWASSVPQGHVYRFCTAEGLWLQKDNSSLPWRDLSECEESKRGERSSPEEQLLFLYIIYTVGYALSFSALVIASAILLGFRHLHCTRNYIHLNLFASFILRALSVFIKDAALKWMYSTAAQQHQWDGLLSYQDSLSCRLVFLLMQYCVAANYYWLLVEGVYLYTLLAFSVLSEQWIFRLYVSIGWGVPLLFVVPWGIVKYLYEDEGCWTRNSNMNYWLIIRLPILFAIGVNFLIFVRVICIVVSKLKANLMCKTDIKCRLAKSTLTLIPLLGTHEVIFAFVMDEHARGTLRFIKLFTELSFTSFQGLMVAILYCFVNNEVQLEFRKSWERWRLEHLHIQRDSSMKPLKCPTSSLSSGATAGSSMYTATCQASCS

SMILES	EC50 (GLP-1R [1]) [nM]	EC50 (GIP-R; EC50 GIP-R/nM, Table 3) [nM]	EC50 (GIP-R; EC50 GIP-R/nM, Table 3A) [nM]	Emax (GIP-R; Table 3) [%]	Emax (GIP-R; Table 3A) [%]	EC50 (GLP-1R [2]; EC50 GLP-1R/nM, Table 3) [nM]	EC50 (GLP-1R [2]; EC50 GLP-1R/nM, Table 3A) [nM]	Emax (GLP-1R [2]; Table 3) [%]	Emax (GLP-1R [2]; Table 3A) [%]	EC50 (GLP-1R [1]; [3]) [nM]	EC50 (GIP-R; [4]) [nM]	EC50 (GIP-R; [5]) [nM]	EC50 (GLP-1R [2]; [6]) [nM]	EC50 (GLP-1R [2]; [7]) [nM]
CCCCCCCCCCCCCCCC(=O)N[C@@H](CCC(=O)NCCCC[C@H](NC(=O)[C@H](CO)NC(=O)[C@@H]1CCCN1C(=O)[C@@H]1CCCN1C(=O)[C@@H]1CCCN1C(=O)[C@H](C)NC(=O)CNC(=O)[C@H](CO)NC(=O)[C@H](CO)NC(=O)[C@@H]1CCCN1C(=O)CNC(=O)CNC(=O)[C@H](C)NC(=O)[C@H](CC(C)C)NC(=O)[C@H](CC(C)C)NC(=O)[C@H](Cc1c[nH]c2ccccc12)NC(=O)[C@H](CC(N)=O)NC(=O)[C@@H](NC(=O)[C@H](Cc1ccccc1)NC(=O)[C@H](CCC(=O)O)NC(=O)C(C)(C)NC(=O)[C@H](C)NC(=O)[C@H](C)NC(=O)[C@H](CCC(N)=O)NC(=O)[C@H](CCCCN)NC(=O)[C@H](CC(=O)O)NC(=O)[C@H](CC(C)C)NC(=O)[C@H](Cc1ccc(O)cc1)NC(=O)[C@@H](NC(=O)[C@H](CO)NC(=O)[C@H](Cc1ccc(O)cc1)NC(=O)[C@H](CC(=O)O)NC(=O)[C@H](CO)NC(=O)[C@@H](NC(=O)[C@H](Cc1ccccc1)NC(=O)[C@@H](NC(=O)CNC(=O)[C@H](CCC(=O)O)NC(=O)CSCC(=O)NCCN1CCCN(C)C1=O)[C@@H](C)O)[C@@H](C)O)[C@@H](C)CC)C(C)C)C(N)=O)C(=O)O [Compound 23]	> 1000	1 to 10	1 to 10	37	37	1 to 10	1 to 10	83	83					
CCCCCCCCCCCCCCCC(=O)N[C@@H](CCC(=O)NCCCC[C@H](NC(=O)[C@H](CO)NC(=O)[C@@H]1CCCN1C(=O)[C@@H]1CCCN1C(=O)[C@@H]1CCCN1C(=O)[C@H](C)NC(=O)CNC(=O)[C@H](CO)NC(=O)[C@H](CO)NC(=O)[C@@H]1CCCN1C(=O)CNC(=O)CNC(=O)[C@H](C)NC(=O)[C@H](CC(C)C)NC(=O)[C@H](CC(C)C)NC(=O)[C@H](Cc1c[nH]c2ccccc12)NC(=O)[C@H](CC(N)=O)NC(=O)[C@@H](NC(=O)[C@H](Cc1ccccc1)NC(=O)[C@H](CCC(=O)O)NC(=O)C(C)(C)NC(=O)[C@H](C)NC(=O)[C@H](C)NC(=O)[C@H](CCC(N)=O)NC(=O)[C@H](CCCCN)NC(=O)[C@H](CC(=O)O)NC(=O)[C@H](CC(C)C)NC(=O)[C@H](Cc1ccc(O)cc1)NC(=O)[C@@H](NC(=O)[C@H](CO)NC(=O)[C@H](Cc1ccc(O)cc1)NC(=O)[C@H](CC(=O)O)NC(=O)[C@H](CO)NC(=O)[C@@H](NC(=O)[C@H](Cc1ccccc1)NC(=O)[C@@H](NC(=O)CNC(=O)[C@H](CCC(=O)O)NC(=O)CSCC(=O)NCCN1CCNC(=O)C1=O)[C@@H](C)O)[C@@H](C)O)[C@@H](C)CC)C(C)C)C(N)=O)C(=O)O [Compound 24]	> 1000	1 to 10	100 to 1000	15	15	0.1 to 1	0.1 to 1	92	92					
CCCCCCCCCCCCCCCC(=O)N[C@@H](CCC(=O)NCCCC[C@H](NC(=O)[C@H](CO)NC(=O)[C@@H]1CCCN1C(=O)[C@@H]1CCCN1C(=O)[C@@H]1CCCN1C(=O)[C@H](C)NC(=O)CNC(=O)[C@H](CO)NC(=O)[C@H](CO)NC(=O)[C@@H]1CCCN1C(=O)CNC(=O)CNC(=O)[C@H](C)NC(=O)[C@H](CC(C)C)NC(=O)[C@H](CC(C)C)NC(=O)[C@H](Cc1c[nH]c2ccccc12)NC(=O)[C@H](CC(N)=O)NC(=O)[C@@H](NC(=O)[C@H](Cc1ccccc1)NC(=O)[C@H](CCC(=O)O)NC(=O)C(C)(C)NC(=O)[C@H](C)NC(=O)[C@H](C)NC(=O)[C@H](CCC(N)=O)NC(=O)[C@H](CCCCN)NC(=O)[C@H](CC(=O)O)NC(=O)[C@H](CC(C)C)NC(=O)[C@H](Cc1ccc(O)cc1)NC(=O)[C@@H](NC(=O)[C@H](CO)NC(=O)[C@H](Cc1ccc(O)cc1)NC(=O)[C@H](CC(=O)O)NC(=O)[C@H](CO)NC(=O)[C@@H](NC(=O)[C@H](Cc1ccccc1)NC(=O)[C@@H](NC(=O)CNC(=O)[C@H](CCC(=O)O)NC(=O)CSCC(=O)NCCN1CC(=O)NCC1=O)[C@@H](C)O)[C@@H](C)O)[C@@H](C)CC)C(C)C)C(N)=O)C(=O)O [Compound 25]				43	43			86	86	> 1000	1 to 10	1 to 10	1 to 10	1 to 10
CCCCCCCCCCCCCCCC(=O)N[C@@H](CCC(=O)NCCCC[C@H](NC(=O)[C@H](CO)NC(=O)[C@@H]1CCCN1C(=O)[C@@H]1CCCN1C(=O)[C@@H]1CCCN1C(=O)[C@H](C)NC(=O)CNC(=O)[C@H](CO)NC(=O)[C@H](CO)NC(=O)[C@@H]1CCCN1C(=O)CNC(=O)CNC(=O)[C@H](C)NC(=O)[C@H](CC(C)C)NC(=O)[C@H](CC(C)C)NC(=O)[C@H](Cc1c[nH]c2ccccc12)NC(=O)[C@H](CC(N)=O)NC(=O)[C@@H](NC(=O)[C@H](Cc1ccccc1)NC(=O)[C@H](CCC(=O)O)NC(=O)C(C)(C)NC(=O)[C@H](C)NC(=O)[C@H](C)NC(=O)[C@H](CCC(N)=O)NC(=O)[C@H](CCCCN)NC(=O)[C@H](CC(=O)O)NC(=O)[C@H](CC(C)C)NC(=O)[C@H](Cc1ccc(O)cc1)NC(=O)[C@@H](NC(=O)[C@H](CO)NC(=O)[C@H](Cc1ccc(O)cc1)NC(=O)[C@H](CC(=O)O)NC(=O)[C@H](CO)NC(=O)[C@@H](NC(=O)[C@H](Cc1ccccc1)NC(=O)[C@@H](NC(=O)CNC(=O)[C@H](CCC(=O)O)NC(=O)CCC(=O)NCCN1CCCCC1=O)[C@@H](C)O)[C@@H](C)O)[C@@H](C)CC)C(C)C)C(N)=O)C(=O)O [Compound 26]				64	64			95	95	> 1000	1 to 10	1 to 10	0.1 to 1	0.1 to 1
CCCCCCCCCCCCCCCC(=O)N[C@@H](CCC(=O)NCCCC[C@H](NC(=O)[C@H](CO)NC(=O)[C@@H]1CCCN1C(=O)[C@@H]1CCCN1C(=O)[C@@H]1CCCN1C(=O)[C@H](C)NC(=O)CNC(=O)[C@H](CO)NC(=O)[C@H](CO)NC(=O)[C@@H]1CCCN1C(=O)CNC(=O)CNC(=O)[C@H](C)NC(=O)[C@H](CC(C)C)NC(=O)[C@H](CC(C)C)NC(=O)[C@H](Cc1c[nH]c2ccccc12)NC(=O)[C@H](CC(N)=O)NC(=O)[C@@H](NC(=O)[C@H](Cc1ccccc1)NC(=O)[C@H](CCC(=O)O)NC(=O)C(C)(C)NC(=O)[C@H](C)NC(=O)[C@H](C)NC(=O)[C@H](CCC(N)=O)NC(=O)[C@H](CCCCN)NC(=O)[C@H](CC(=O)O)NC(=O)[C@H](CC(C)C)NC(=O)[C@H](Cc1ccc(O)cc1)NC(=O)[C@@H](NC(=O)[C@H](CO)NC(=O)[C@H](Cc1ccc(O)cc1)NC(=O)[C@H](CC(=O)O)NC(=O)[C@H](CO)NC(=O)[C@@H](NC(=O)[C@H](Cc1ccccc1)NC(=O)[C@@H](NC(=O)CNC(=O)[C@H](CCC(=O)O)NC(=O)CCCC(=O)NCCN1CCCCC1=O)[C@@H](C)O)[C@@H](C)O)[C@@H](C)CC)C(C)C)C(N)=O)C(=O)O [Compound 27]				45	45			95	95	> 1000	1 to 10	1 to 10	0.1 to 1	0.1 to 1
